According to patent US10196383B2, “Substituted quinazoline compounds and preparation and uses thereof” (Sunshine Lake Pharma Co., Ltd., priority 2015, dated 2019):

What was measured:
humanized OX2 receptor = humanized OX2 receptor (Homo sapiens (Human), UniProt O43614); test: Antagonism of humanized OX2 receptor assay (fluorescence detection of free cytoplasmic calcium, 10 nM orexin B); format: cell-based; conditions: humanized OX2 receptor transfected HEK-293 cells
Method: The capability of the compounds to antagonism of humanized OX2 receptor transfected by the HEK-293 cells was evaluated by the method of fluorescence detected free calcium concentration in the cytoplasm. The cells were suspended in cell culture medium (invitrogen), and then added to a microplate with an average density of 3×10^4 cells/well. The fluorescent probes (Fluo4 NW, Invitrogen) was mixed with probenecid Hank's balanced salt solution (invitrogen), followed by addition of 20 mM hydroxyethyl piperazine […] (invitrogen) (pH 7.4). The resulting mixture was eventually added to the microwells containing cells. The cells were incubated at 37° C. for 60 min, and then balanced at 22° C. for 15 min. The microplate was placed in a microplate reader (CellLux, PerkinElmer), and the solution of test compound with different concentrations or Hank's balanced salt solution was added. The microplate containing the solution was incubated for 5 min, followed by the addition of 10 nM of orexin B or a balanced salt solution (as control). The changes of fluorescence intensity proportional to the concentration of calcium ions in the cytoplasm were measured.
With the substrate control as 0 and 10 nM of orexin B as 100%, inhibition rate of each compound was recorded. Referring to the compound JNJ10397049, several different concentrations were measured in each experiment. Dose-response curves were made, and IC50 value of each compound was calculated.

humanized OX1 receptor = humanized OX1 receptor (Homo sapiens (Human), UniProt O43613); test: Antagonism of humanized OX1 receptor assay (fluorescence detection of free cytoplasmic calcium, 3 nM orexin A); format: cell-based; conditions: humanized OX1 receptor transfected CHO cells
Chain of humanized OX1 receptor (O43613 whole entry): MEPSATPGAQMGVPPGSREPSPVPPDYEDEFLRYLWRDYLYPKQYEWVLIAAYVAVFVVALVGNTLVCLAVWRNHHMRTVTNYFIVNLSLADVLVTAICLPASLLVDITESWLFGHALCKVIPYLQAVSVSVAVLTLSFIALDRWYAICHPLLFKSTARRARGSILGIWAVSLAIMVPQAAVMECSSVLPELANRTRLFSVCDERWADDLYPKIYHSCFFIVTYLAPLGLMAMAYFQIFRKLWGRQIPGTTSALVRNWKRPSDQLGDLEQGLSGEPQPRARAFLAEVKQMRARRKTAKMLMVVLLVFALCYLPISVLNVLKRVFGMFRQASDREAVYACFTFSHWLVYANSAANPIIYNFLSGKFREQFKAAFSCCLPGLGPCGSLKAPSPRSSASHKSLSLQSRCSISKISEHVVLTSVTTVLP
Method: The capability of the compounds to the antagonism of humanized OX1 receptor transfected to the Chinese hamster ovary (CHO) cells was evaluated by the method of fluorescence detected free calcium concentration in the cytoplasm. The cells were suspended in a cell culture medium (invitrogen), and then plated to a microplate with an average density of 2×10^4 cells/well. The fluorescent probes (Fluo4 NW, Invitrogen) was mixed with probenecid Hank's balanced salt solution (invitrogen), followed by addition of 20 mM hydroxyethyl piperazine […] (invitrogen) (pH 7.4). The resulting mixture was eventually added to the microwells containing cells. The cells were incubated at 37° C. for 60 min, and then balanced at 22° C. for 15 min. The microplate was placed in a microplate reader (CellLux, PerkinElmer), and the solution of test compound with different concentrations or Hank's balanced salt solution was added. The microplate containing the solution was incubated for 5 min, followed by the addition of 3 nM of orexin A or a balanced salt solution (as control). The changes of fluorescence intensity proportional to the concentration of calcium ions in the cytoplasm were measured.
With the substrate control as 0 and 3 nM orexin A as 100%, inhibition rate of each compound was recorded. Referring to the compound SB334867, several different concentrations were measured in each experiment. Dose-response curves were made, and IC50 value of each compound was calculated.

[1] = Pharmacokinetic evaluation with intravenous or oral administration; format: in vivo; conditions: rats; for AUC(0-inf) / AUC(0-t) / Cmax / Tmax / clearance / Vd: rat, plasma; for Vd: read-out: Vss
Method: Pharmacokinetics of the compound of the present invention in rats, dogs or monkeys was evaluated in the present invention. The compounds of this invention were administered with a saline solution of 5% DMSO+5% Kolliphor HS 15+2% (2% HCl)+88% Saline or 10% DMSO+10% Kolliphor HS 15+80% physiological. For intravenous administration, the animals were given a dose of 1 mg/kg, drew blood (0.3 mL) at the time point of 0.083, 0.25, 0.5, 1.0, 2.0, 4.0, 6.0, 8.0 and 24 h, and centrifuged in 3,000 or 4,000 rpm for 10 min. For oral (p.o.) administration, the animals were given a dose of 2.5 mg/kg or 5 mg/kg, drew blood (0.3 mL) at the time point of 0.25, 0.5, 1.0, 2.0, 4.0, 6.0, 8.0 and 24 h, and centrifuged in 3,000 or 4,000 rpm for 10 min. Plasma solution was collected and was stored at −20° C. or […] until LC/MS/MS analysis.

[2] = intravenous administration, 1 mg/kg

Chain of humanized OX2 receptor (O43614 whole entry): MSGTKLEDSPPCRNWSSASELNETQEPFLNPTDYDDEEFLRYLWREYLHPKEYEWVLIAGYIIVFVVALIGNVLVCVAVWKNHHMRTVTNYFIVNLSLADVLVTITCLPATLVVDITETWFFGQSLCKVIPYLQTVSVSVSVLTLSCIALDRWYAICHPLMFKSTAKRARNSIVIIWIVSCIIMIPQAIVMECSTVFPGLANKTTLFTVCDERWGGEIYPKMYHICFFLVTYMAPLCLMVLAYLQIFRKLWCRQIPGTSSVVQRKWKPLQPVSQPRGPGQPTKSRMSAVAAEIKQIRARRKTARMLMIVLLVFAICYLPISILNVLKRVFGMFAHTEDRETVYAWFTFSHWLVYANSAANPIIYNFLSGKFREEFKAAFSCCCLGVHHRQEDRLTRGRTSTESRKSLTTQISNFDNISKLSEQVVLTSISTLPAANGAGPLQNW

Row | Compound | IC50 (humanized OX2 receptor) [nM] | IC50 (humanized OX1 receptor) [nM] | AUC(0-inf) [1, 2] [ng·h/mL] | AUC(0-t) [1, 2] [ng·h/mL] | Cmax [1, 2] [ng/mL] | Tmax [1, 2] [min] | clearance [1, 2] [mL/min/kg] | Vd [1, 2] [L/kg] | AUC(0-inf) ([1]; oral administration, 2.5 mg/kg) [ng·h/mL] | AUC(0-t) ([1]; oral administration, 2.5 mg/kg) [ng·h/mL] | Cmax ([1]; oral administration, 2.5 mg/kg) [ng/mL] | Tmax ([1]; oral administration, 2.5 mg/kg) [min] | F ([1]; oral administration, 2.5 mg/kg) [%] | AUC(0-inf) ([1]; oral administration, 5 mg/kg) [ng·h/mL] | AUC(0-t) ([1]; oral administration, 5 mg/kg) [ng·h/mL] | Cmax ([1]; oral administration, 5 mg/kg) [ng/mL] | Tmax ([1]; oral administration, 5 mg/kg) [min] | F ([1]; oral administration, 5 mg/kg) [%]
1 | Cc1ccc(-n2nccn2)c(C(=O)N2CCCN(c3nc4ccc(Cl)cc4c(=O)[nH]3)CC2)c1 [Example 5, 6-chloro-2-(4-(5-methyl-2-(2H-1,2,3-triazol-2-yl)benzoyl)-1,4-diazepan-1-yl)quinazolin-4(3H)-one] | 263 | 276 | – | – | – | – | – | – | – | – | – | – | – | – | – | – | – | –
2 | Cc1ccc(-n2nccn2)c(C(=O)N2CCN(c3nc4ccc(Cl)cc4c(=O)[nH]3)CCC2C)c1 (centres unmarked) [Example 6, 6-chloro-2-(5-methyl-4-(5-methyl-2-(2H-1,2,3-triazol-2-yl)benzoyl)-1,4-diazepan-1-yl)quinazolin-4(3H)-one] | 221 | 367 | 1740 | 1730 | 3660 | 4.98 | 9.66 | 0.292 | – | – | – | – | – | 6840 | 6800 | 5680 | 20 | 79
3 | O=C(c1ccccc1-n1nccn1)N1CCCN(c2nc3ccc(Cl)cc3c(=O)[nH]2)CC1 [Example 7, 2-(4-(2-(2H-1,2,3-triazol-2-yl)benzoyl)-1,4-diazepan-1-yl)-6-chloroquinazolin-4(3H)-one] | – | – | 3700 | 3450 | 4080 | 4.98 | 4.52 | 1.33 | – | – | – | – | – | 15000 | 14300 | 13800 | 15 | 83.1

The remaining compounds from weak to strong by IC50 (humanized OX2 receptor), led by results:

Row | IC50 (humanized OX2 receptor) [nM] | IC50 (humanized OX1 receptor) [nM] | AUC(0-inf) [1, 2] [ng·h/mL] | AUC(0-t) [1, 2] [ng·h/mL] | Cmax [1, 2] [ng/mL] | Tmax [1, 2] [min] | clearance [1, 2] [mL/min/kg] | Vd [1, 2] [L/kg] | AUC(0-inf) ([1]; oral administration, 2.5 mg/kg) [ng·h/mL] | AUC(0-t) ([1]; oral administration, 2.5 mg/kg) [ng·h/mL] | Cmax ([1]; oral administration, 2.5 mg/kg) [ng/mL] | Tmax ([1]; oral administration, 2.5 mg/kg) [min] | F ([1]; oral administration, 2.5 mg/kg) [%] | AUC(0-inf) ([1]; oral administration, 5 mg/kg) [ng·h/mL] | AUC(0-t) ([1]; oral administration, 5 mg/kg) [ng·h/mL] | Cmax ([1]; oral administration, 5 mg/kg) [ng/mL] | Tmax ([1]; oral administration, 5 mg/kg) [min] | F ([1]; oral administration, 5 mg/kg) [%] | Compound
4 | 300 | 322 | – | – | – | – | – | – | – | – | – | – | – | – | – | – | – | – | Cc1ccc(-n2nccn2)c(C(=O)N2CCCN(c3nc4ccc(F)cc4c(=O)[nH]3)CC2)c1 [Example 1, 6-fluoro-2-(4-(5-methyl-2-(2H-1,2,3-triazol-2-yl)benzoyl)-1,4-diazepan-1-yl)quinazolin-4(3H)-one]
5 | 169 | 543 | 866 | 865 | 1400 | 4.98 | 19.2 | 0.66 | 1780 | 1770 | 1940 | 20 | 81.8 | – | – | – | – | – | Cc1ccc(-n2nccn2)c(C(=O)N2CCN(c3nc4ccc(F)cc4c(=O)[nH]3)CCC2C)c1 (centres unmarked) [Example 2, 6-fluoro-2-(5-methyl-4-(5-methyl-2-(2H-1,2,3-triazol-2-yl)benzoyl)-1,4-diazepan-1-yl)quinazolin-4(3H)-one]
